# Measurements reported in paper PMC3230241 (Nature biotechnology, 2011).
# Molecular target: CHK2 (Homo sapiens, UniProt O96017)
# Assay: HotSpot radiometric kinase assay, CHK2
# Type: biochemical
# Conditions: compound 0.5 μM, 10 μM ATP; Fig. 4b
# CHK2, sequence (O96017 whole entry): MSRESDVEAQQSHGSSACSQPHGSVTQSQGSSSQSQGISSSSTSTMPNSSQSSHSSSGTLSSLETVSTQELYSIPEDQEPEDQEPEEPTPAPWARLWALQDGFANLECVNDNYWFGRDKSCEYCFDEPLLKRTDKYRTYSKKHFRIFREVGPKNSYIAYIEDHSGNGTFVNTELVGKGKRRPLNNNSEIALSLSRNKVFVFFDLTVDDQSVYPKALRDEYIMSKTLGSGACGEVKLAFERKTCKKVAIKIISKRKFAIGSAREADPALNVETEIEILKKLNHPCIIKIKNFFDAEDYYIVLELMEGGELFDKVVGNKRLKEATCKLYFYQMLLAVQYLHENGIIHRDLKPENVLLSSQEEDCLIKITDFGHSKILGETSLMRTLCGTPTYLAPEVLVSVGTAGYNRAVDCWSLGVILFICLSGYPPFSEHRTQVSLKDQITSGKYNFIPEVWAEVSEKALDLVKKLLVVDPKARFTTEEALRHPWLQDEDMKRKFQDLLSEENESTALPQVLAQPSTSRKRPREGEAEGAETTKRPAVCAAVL
compound,measurement,value
"COc1cc2ncnc(Nc3ccc(OCc4ccccc4)cc3)c2cc1OC [EGFR/ErbB-2 Inhibitor, 4-(4-benzyloxyanilino)-6,7-dimethoxyquinazoline]",inhibition of CHK2,potent inhibition
